In one assay the test system is ALS patients. The following applies: clinical trials in ALS; Wainger et al., 2021; cited from earlier work.
Another assay relates to patients. The note with it: MDD patients; Tan et al., 2018; cited from earlier work.
Another assay has as its system peripheral neuropathy. The following applies: preclinical; Nodera et al., 2011; cited from earlier work.
The test system of assay [1] is Dup15q patient-derived induced pluripotent cells. The note with it: Fink et al., 2018; cited from earlier work.
For assay [2], the system named is preclinical models of tinnitus. The following applies: Li, Choi and Tzounopoulos, 2013; cited from earlier work.
The test system of assay [3] is Patient-derived motor neurons. The note with it: ALS patient-derived motor neurons; Wainger et al., 2014; cited from earlier work.
For a further assay, the system named is pain models. The note with it: Korsgaard et al., 2005; Xu et al., 2010; Wu et al., 2017; cited from earlier work.
Another assay has as its system spreading depression. The following applies: Aiba and Noebels, 2021; cited from earlier work.
The next assay concerns the target T1, human Kv7.2 (Homo sapiens, UniProt O43526).
T1 construct: expressed in transfected cells
As to the kind of experiment: activation (potentiation) of Kv7.2 current, SyncroPatch 384 electrophysiology in CHO cells stably expressing human Kv7.2. The class given is cell-based. The following applies: human Kv7.2 in CHO cells; in presence of 5.6 μM zinc pyrithione; % activation relative to 30 μM ML-213. In a few lines: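 CHO cells stably expressing human Kv7.2 were recorded by automated patch clamp, holding at −60 mV with steps to −30, 40 and −90 mV; current was read at the −90 mV step. Compounds were added after 5.6 μM zinc pyrithione pre-activation. % activation was normalised between 30 μM ML-213 (max) and TEA+XE-991 (leak), with EC50 from a logistic fit.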
On the technique in general: The patch-clamp technique gives a direct electrical read-out from membranes.

By EC50 is commonly meant the midpoint of the concentration-response curve.

T1 sequence (O43526 whole entry): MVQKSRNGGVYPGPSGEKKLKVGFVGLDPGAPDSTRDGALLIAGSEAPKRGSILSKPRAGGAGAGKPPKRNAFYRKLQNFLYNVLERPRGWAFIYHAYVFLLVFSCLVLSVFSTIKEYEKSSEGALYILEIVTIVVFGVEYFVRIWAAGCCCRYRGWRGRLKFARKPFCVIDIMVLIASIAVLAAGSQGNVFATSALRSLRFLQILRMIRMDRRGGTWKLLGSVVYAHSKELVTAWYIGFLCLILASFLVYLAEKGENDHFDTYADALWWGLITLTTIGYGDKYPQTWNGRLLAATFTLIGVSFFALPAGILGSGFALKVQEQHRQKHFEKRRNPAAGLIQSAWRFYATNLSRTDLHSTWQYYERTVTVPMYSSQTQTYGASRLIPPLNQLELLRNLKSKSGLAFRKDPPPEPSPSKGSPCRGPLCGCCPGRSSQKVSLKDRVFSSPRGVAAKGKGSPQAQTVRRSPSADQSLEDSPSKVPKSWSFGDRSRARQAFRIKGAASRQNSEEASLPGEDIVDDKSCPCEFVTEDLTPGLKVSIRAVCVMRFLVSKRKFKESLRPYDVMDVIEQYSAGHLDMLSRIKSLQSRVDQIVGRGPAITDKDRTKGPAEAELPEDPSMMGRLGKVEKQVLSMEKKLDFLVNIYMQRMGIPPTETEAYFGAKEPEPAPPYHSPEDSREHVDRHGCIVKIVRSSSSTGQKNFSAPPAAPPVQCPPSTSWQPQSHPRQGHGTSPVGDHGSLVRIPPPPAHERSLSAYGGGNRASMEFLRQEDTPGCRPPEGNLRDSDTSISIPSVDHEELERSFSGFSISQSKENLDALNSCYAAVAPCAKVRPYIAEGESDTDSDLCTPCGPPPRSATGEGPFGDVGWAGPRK

For the molecule `CCOC(=O)Nc1ccc(NCc2ccc(F)cc2)cc1N` [Retigabine], the “efficacy on functional biomarkers of ALS” value with ALS patients is given as “showed efficacy on functional biomarkers of ALS”. Besides, in the assay with patients, the antidepressant efficacy result is on record as “showed antidepressant efficacy in patients” and the “reduction in depressive symptoms” value is “significant reduction in depressive symptoms”. Moreover, in the assay with peripheral neuropathy, the “protection against peripheral neuropathy” value was “protects against peripheral neuropathy”. Also, the effect on phenotype entry in [1] is “partially corrects their phenotype”. For the same molecule, the “prevention of the development of tinnitus” value in [2] is “prevents the development of tinnitus in preclinical models”. In assay [3], the “rescue of membrane hyperexcitability phenotype” value is given as “rescues the phenotype”. In addition, in the assay on pain models, the “efficacy in preclinical pain models” value is “some efficacy in preclinical pain models”. Moreover, the “efficacy in controlling spreading depression” value in the assay with spreading depression is given as “shows efficacy in controlling spreading depression”. Consider `CCOC(CNC(=O)NC1CCCC1)c1cccc(Br)c1` (centres unmarked) [Example 28, 1-[2-(3-bromophenyl)-2-ethoxy-ethyl]-3-cyclopentyl-urea], for which, at human Kv7.2, the EC50 was found to be 2580 nM. Same read-out and setting: the result for `COC(C)(CNC(=O)NCCCc1ccccc1)c1cccc(Cl)c1` (centres unmarked) [Example 32, 1-[2-(3-chlorophenyl)-2-methoxy-propyl]-3-(3-phenylpropyl)urea] reads 1980 nM. As for `O=C(CC1CCCCC1)N[C@H]1C[C@H](c2cccc(Cl)c2)C1` [Example 56, N-[3-(1r,3r)-(3-chlorophenyl)cyclobutyl]-2-cyclohexyl-acetamide], the EC50 on human Kv7.2 is 3190 nM. Same read-out and setting: to `O=C(N[C@H]1C[C@@H]2CC[C@H]1C2)N[C@H]1C[C@H](c2cccc(Cl)c2)C1` (racemic) [Example 38, 1-[3-(1r,3r)-(3-chlorophenyl)cyclobutyl]-3-[(1SR,2SR,4RS)-norbornan-2-yl]urea] belongs 830 nM; to `CO[C@@](C)(CNC(=O)C1CC12CCOCC2)c1cccc(Cl)c1` (stereo partly drawn) [Example 84, N-[(2R)-2-(3-chlorophenyl)-2-methoxy-propyl]-6-oxaspiro[2.5]octane-2-carboxamide], 130 nM. As for `O=C(NCC1CCCCO1)NCC1(c2cccc(Cl)c2)CC1` (centres unmarked) [Example 15, 1-[[1-(3-chlorophenyl)cyclopropyl]meth-yl]-3-(tetrahydropyran-2-ylmethyl)urea], the EC50 on human Kv7.2 is 6920 nM.

Consider `COC(C)(CNC(=O)NCc1cccc(C)c1)c1cccc(Cl)c1` (centres unmarked) [Example 11, 1-[2-(3-chlorophenyl)-2-methoxy-propyl]-3-(m-tolylmethyl)urea], for which the EC50 at human Kv7.2 was found to be 1430 nM. Regarding `O=C(NCC1(c2cccc(OC(F)F)n2)CCO1)C1CC12CCC(F)(F)CC2` (centres unmarked) [Example 120, N-[[2-[6-(difluoromethoxy)-2-pyridyl]oxetan-2-yl]methyl]-6,6-difluoro-spiro[2.5]octane-2-carboxamide], at human Kv7.2, the EC50 is 260 nM. For `O=C(NC[C@@]1(c2cccc(Cl)c2)CCO1)[C@H]1C[C@@H]1c1ccccc1` [Example 40, (1S,2S)-N-[[(2S)-2-(3-chlorophenyl)oxetan-2-yl]methyl]-2-phenyl-cyclopropanecarboxamide], the EC50 at human Kv7.2 was 110 nM. Still for that read-out and setting: to `COC(C)(CNC(=O)NC1COC2(CCCC2)C1)c1cccc(Cl)c1` (centres unmarked) [Example 13, 1-[2-(3-chlorophenyl)-2-methoxy-propyl]-3-(1-oxaspiro[4.4]nonan-3-yl)urea] belongs 3550 nM. Still for that read-out and setting: to `COC(C)(CNC(=O)C1CC1c1ccc(Cl)cc1)c1cccc(Cl)c1` (centres unmarked) [Example 44, 2-(4-chlorophenyl)-N-[2-(3-chlorophenyl)-2-methoxy-propyl]cyclopropanecarboxamide] belongs 900 nM.

(Values after patent publication US20260308149A1, “NOVEL CARBOXAMIDE DERIVATIVES” (ANGELINI PHARMA S.P.A., priority 2023, published 2026).)
